Converted amounts (≈) assume the structure as drawn.
Tests used:
[1] = system: ganciclovir-resistant CMV strains 759^r D100 and GDG^r K17 and foscarnet-resistant CMV strains PFA^r D100 and PFA^r B300; details: range over strains 759^r D100, GDG^r K17, PFA^r D100, PFA^r B300; MRC-5; drug pre- and post-infection
Experimental: This stock solution was subsequently diluted in cell culture medium to obtain the test concentrations used in the study. Ganciclovir (GCV) was dissolved in sterile, deionized water, and the drug concentration measured spectrophotometrically (7.8mM). Foscarnet (phosphonoformic acid, PFA) was dissolved in sterile, deionized water to a final concentration of 100 mM. Aliquots of the stock solutions were stored at -70° C.
Drug-resistant human CMV strains 759^r D100, GDG^r K17, PFA^r D100 and PFA^r B300 were obtained from Dr. Donald M. Coen, Harvard Medical School, Boston, Mass.
The drug stock solutions were diluted with fresh culture medium to obtain the desired test concentrations in the range 0.5-2500 μM.
MRC-5 cells (4-5×10^5 per well) were grown for 24 hours at 37° C. in 5% CO2 atmosphere in D-MEM/F-12FBS medium containing varying concentrations of drug. At the end of the pre-treatment period, the cells were infected with a suspension containing 50 plaque forming units of CMV (MOI=0.0001). The virus was allowed to absorb for 60 minutes at 37° C. in the absence of drug, at which time the virus innoculum was washed away, and the cells fed with fresh growth medium containing drug. […] Vital plaques were counted under a microscope after removing the culture medium from the wells, staining the cells with 1.1% Crystal Violet solution, and washing twice with tap water. […]

[2] = toxicity control mice, immunosuppressed, uninfected; details: for Mean Body Weight Change: start of treatment to 24 hr after final treatment; for Surv/Total: toxicity controls
Experimental: The mice were immunosuppressed by intraperitoneal (i.p.) injection with 100 mg/kg/day of cyclophosphamide administered on days -1, +3, +6, +10, +14 and +18 relative to virus inoculation. […] In a second portion of the study, the compound was administered i.p. in a dose of 0.1 mg/kg/day once daily from day -2 through +10. Ganciclovir in a dose of 50 mg/kg/day was injected i.p. once daily for 10 days beginning 24 hr post-virus exposure (days +1→+10). A total of 15 infected mice/dose were used. […] Five toxicity control mice were used at each dose; these mice were treated in parallel with the infected mice, and were weighed on the initial day of treatment and again 24 after the final treatment. […] Normal controls were weighed and held in parallel with the toxicity controls.

HCMV strain AD-169 = test: drug combination plaque reduction study (MacSynergy); type: cell-based; details: human CMV-infected MRC-5 cells, plaque counts
Experimental: For use in this study, HCMV strain AD-169 was obtained from the American Type Culture Collection, Rockville, Md. and ganciclovirresistant clinical isolate of HCMV, strain D16, was obtained from Kenneth D. Thompson, Loyola University Medical Center, Maywood, Ill. Host MRC-5 cells were cultured in a medium of Basal Medium Eagle (BME) (GIBCO), fetal bovine serum (FBS) (Hyclone Laboratories), 0.035% NaHCO3 and without antibiotics.
Test medium for dilution of virus and for preparation and dilution of compounds was Dulbecco's modified Eagle medium (DMEM), 2% FBS, 0.1% NaHCO3, 50 μg gentamicin/ml.
For drug combination experiments, each of AV-9, DHPG, foscarnet, and […] was prepared in test medium at double the highest concentration used. Each of these compound preparations was then diluted by serial 2-fold dilutions in test medium (except for AZT, which was diluted by serial half-log dilutions).
Growth medium was decanted from established monolayers of MRC-5 cells in 24-well tissue culture plates. Compound dilutions were placed in designated wells of the plates at 0.8 ml/well, with test medium only placed in virus control or cell control wells, and the plates were placed at 37° C. Four wells were used for each different compound dilution. After 24 hr of pre-treatment incubation, the medium was aspirated from each well of the plates. One ml of virus, diluted in test medium was placed in each well except those to be used for cell controls or those to be used for toxicity controls. One ml of sterile test medium was placed in each of these cell or toxicity control wells. The plates were centrifuged at 2200 rpm for 30 minutes at room temperature to allow the virus to adsorb. Medium was aspirated from each well of the plates. The proper individual compound concentrations or combinations were placed in test wells (0.8 ml/well, 4 wells/dilution) or in toxicity control wells. Test medium without compound was added (0.8 ml/well) to each cell control and virus control well. All plates were incubated at 37° C. in a moist atmosphere of 5% CO2, 95% air. […] After 15 minutes, the stain was removed, cells were rinsed in tap water until the water was clear, and the plates were inverted and dried at room temperature. Plaques were counted by use of a dissecting microscope. The plaque counts were entered in the MacSynergy™ program of Prichard and Shipman and 3-D plots were made.

[3] = system: Smith strain of murine CMV; test: murine CMV infection in cyclophosphamide-immunosuppressed mice; type: in vivo, BALB/c mice; details: for Surv/Total / Mean Day to Death ± S.D.: infected mice
Description: This immunosuppression model mimics the human patient situation, wherein the HCMV-induced disease in immunosuppressed individuals can often be fatal. The particular model used for evaluating potential antiviral activity has been described by Smee et al in J. Infect. Dis., 1991, 164: 958.
The Smith strain of murine CMV, obtained originally from the American Type Culture Collection (Rockville, Md.) was used. A mouse salivary gland preparation was used for the virus pool. An inoculation of 2×10^4 plaque forming units of the virus was used in the antiviral study. Female BALB/c mice weighing 10-12 g were quarantined 24 hr prior to use, and maintained on Wayne Lab Blox and tap water ad libitum the duration of the study.
Ganciclovir (DHPG) was purchased from a commercial source, and cyclophosphamide was purchased from Sigma Chemical Co. (St. Louis, Mo.).
To determine tissue virus titre, homogenates of infected mouse organs were titrated for virus using C127/I cells in 96-well microplates. Each tissue sample was homogenized and titrated separately with 3 micro wells used per dilution; plates were read by microscopic examination for viral-induced cytopathic effect, with 50% end points determined by the Reed-Muench method. Mean viral titers were expressed at 50% cell culture infectious doses (CCID50)/gram of tissue.
For statistical evaluation, increases in mean day to death and reductions in viral titers were assessed using the two-tailed Mann-Whitney U test. Total survivor increases were evaluated by chi square analysis with Yates'.

CMV strain Towne = type: cell-based, human CMV; details: HFF, plaque reduction, without 24 h drug pretreatment
Experimental: The following procedures were then used to determine inhibitory effects of AV-9 on the replication of CMV. […] This was accomplished by diluting the stock peptide solution in growth medium (10% fetal bovine serum and 10 μg/ml gentamicin in Dulbecco's MEM (DMEM)) used to overlay the monolayers.
[…] Virus was then allowed to adsorb for 1 hour at 37° C. The virus inoculum was removed and the monolayers were overlayed with DMEM containing 2% FBS, 10 ug/ml gentamicin and a specified concentration of AV-9. Virus was next allowed to replicate for 7 to 10 days until the plaques were judged to be well developed, and then the monolayers were fixed and stained with a solution of 1% crystal violet in 1% formaldehyde,70% ethanol. Finally, plaques (each representing a single viable virion) were counted and checked microscopically.
In a like manner, plaque reduction assays were also performed against other CMV strains and another CMV host, with comparison against ganciclovir (GCV) and foscarnet (FCV).

physchem = details: water
[4] = 0.07 mg/kg/day i.p., days -2,0,+2,+4,+6,+8,+10
[5] = 0.1 mg/kg/day i.p., daily days -2 through +10
[6] = 0.2 mg/kg/day i.p., days -2,0,+2,+4,+6,+8,+10
[7] = 0.7 mg/kg/day i.p., days -2,0,+2,+4,+6,+8,+10
[8] = 2.0 mg/kg/day i.p., days -2,0,+2,+4,+6,+8,+10
[9] = 0.2 mg/kg/day i.p. every other day, day 9
[10] = 0.2 mg/kg/day i.p. every other day, 9 days after virus challenge

**Q.** With `CC(=O)N[C@H](CCCNC(=N)N)C(=O)N[C@H](CCCNC(=N)N)C(=O)N[C@H](CCCNC(=N)N)C(=O)N[C@H](CCCNC(=N)N)C(=O)N[C@H](CCCNC(=N)N)C(=O)N[C@H](CCCNC(=N)N)C(=O)N[C@H](CCCNC(=N)N)C(=O)N[C@H](CCCNC(=N)N)C(=O)N[C@H](CCCNC(=N)N)C(N)=O` [AV-9, acetyl-[D-Arg]9 -NH2] as the molecule, how does the IC50 [1] read?
**A.** Its IC50 is 1.3 to 2.1 µM.

**Q.** And the “Mean Body Weight Change” value ([2]; 0.07 mg/kg/day i.p. every other day)?
**A.** The value was 2.7 g.

**Q.** What about the “Mean Body Weight Change” value ([2]; 0.1 mg/kg/day i.p. daily days -2 to +10) of the same molecule?
**A.** Its value is 3.1 g.

**Q.** And the “Mean Body Weight Change” value ([2]; 0.2 mg/kg/day i.p. every other day)?
**A.** The value was 2.2 g.

**Q.** What about the “Mean Body Weight Change” value ([2]; 0.7 mg/kg/day i.p. every other day) of the same molecule?
**A.** The value was 2.4 g.

**Q.** And the “Mean Body Weight Change” value ([2]; 2.0 mg/kg/day i.p. every other day)?
**A.** Its value is 1.9 g.

**Q.** What about the “other signs of toxicity (hunching, prostration, ruffled fur, tremors)” value ([2]; all doses) of the same molecule?
**A.** Its value is “No other signs of toxicity”.

**Q.** And the “toxicity, overall assessment” value ([2]; all doses, Table 3)?
**A.** Its value is “reasonably non-toxic”.

**Q.** And the Surv/Total [2, 4]?
**A.** The Surv/Total was 5/5.

**Q.** What about the Surv/Total [2, 5] of the same molecule?
**A.** Its Surv/Total is 5/5.

**Q.** What about the Surv/Total [2, 6] of the same molecule?
**A.** Its Surv/Total is 5/5.

**Q.** And the Surv/Total [2, 7]?
**A.** The Surv/Total was 5/5.

**Q.** And the Surv/Total [2, 8]?
**A.** Its Surv/Total is 5/5.

**Q.** What about the “antagonism in combination with phosphonoformic acid (foscarnet)” value (HCMV strain AD-169) of the same molecule?
**A.** The value was “insignificant amount of antagonism”.

**Q.** What about the “synergy in combination with AZT” value (HCMV strain AD-169) of the same molecule?
**A.** The value was “No synergy”.

**Q.** What about the “synergy in combination with DHPG” value (HCMV strain AD-169) of the same molecule?
**A.** The value was “intense synergy”.

**Q.** What about the “synergy in combination with phosphonoformic acid (foscarnet)” value (HCMV strain AD-169) of the same molecule?
**A.** Its value is “moderate amount of synergy”.

**Q.** What about the “animals without detectable virus in lungs” value [3, 9] of the same molecule?
**A.** The value was “one had no detectable virus”.

**Q.** What about the “animals without detectable virus in spleen, of the five sampled” value [3, 9] of the same molecule?
**A.** Its value is “three had no detectable virus”.

**Q.** And the “effect on salivary gland virus titers” value [3, 9]?
**A.** Its value is “No effect”.

**Q.** What about the “reduction of mean lung virus titer compared to placebo-treated controls” value [3, 9] of the same molecule?
**A.** Its value is 0.6 log10.

**Q.** And the “Tissue Virus Titer ± S.D., Lung” value [3, 10]?
**A.** Its value is 3.3 ± 1.9 log10 CCID50/g.

**Q.** And the “Tissue Virus Titer ± S.D., Salivary Gland” value [3, 10]?
**A.** The value was 7.6 ± 1.2 log10 CCID50/g.

**Q.** What about the “Tissue Virus Titer ± S.D., Spleen” value [3, 10] of the same molecule?
**A.** The value was 1.5 ± 2.26 log10 CCID50/g.

**Q.** What about the Surv/Total [3, 4] of the same molecule?
**A.** The Surv/Total was 0/8.

**Q.** What about the “Mean Day to Death ± S.D.” value ([3]; 0.07 mg/kg/day i.p., days -2,0,+2,+4,+6,+8,+10, P<0.05 vs saline) of the same molecule?
**A.** Its value is 13.4 ± 2.6 days.

**Q.** And the “Mean Day to Death ± S.D.” value [3, 5]?
**A.** Its value is 11.3 ± 0.5 days.

**Q.** And the Surv/Total [3, 5]?
**A.** Its Surv/Total is 0/8.

**Q.** What about the Surv/Total [3, 6] of the same molecule?
**A.** Its Surv/Total is 0/8.

**Q.** And the “Mean Day to Death ± S.D.” value ([3]; 0.2 mg/kg/day i.p., days -2,0,+2,+4,+6,+8,+10, P<0.01 vs saline)?
**A.** Its value is 18.5 ± 3.7 days.

**Q.** What about the “Mean Day to Death ± S.D.” value [3, 7] of the same molecule?
**A.** The value was 11.6 ± 1.6 days.

**Q.** And the Surv/Total [3, 7]?
**A.** Its Surv/Total is 0/7.

**Q.** What about the “Mean Day to Death ± S.D.” value [3, 8] of the same molecule?
**A.** The value was 12.1 ± 1.3 days.

**Q.** And the Surv/Total [3, 8]?
**A.** The Surv/Total was 0/7.

**Q.** And the IC50 (CMV strain Towne)?
**A.** Its IC50 is 8.7 µM.

**Q.** What about the solubility (physchem) of the same molecule?
**A.** Its solubility is about 1000 mg/mL (≈ 683 mM).

Source: patent publication US5633230A, “Treatment of cytomegalovirus infection” (priority 1994, dated 1997)
